In the NIST ThermoML archive (doi:10.1021/je200682t):
± gives the expanded uncertainty stated by the source.

Test: relative permittivity at zero frequency (dimensionless)
Conditions: 283.15 K; 101.33 kPa; Liquid; Parallel plate capacitor

For `O=C1CCCC1` [cyclopentanone], the “relative permittivity at zero frequency” value was 14.06 ± 0.04.

Same assay, conditions: 285.65 K; 101.33 kPa; Liquid; Parallel plate capacitor

In order of falling “relative permittivity at zero frequency” value:
1. O=C1CCCCC1 [cyclohexanone]  16.56 ± 0.02
2. O=C1CCC1 [cyclobutanone]  15.58 ± 0.02
3. O=C1CCCC1 [cyclopentanone]  13.96 ± 0.04
4. O=C1CCCCCC1 [cycloheptanone]  13.46 ± 0.02

Same assay, conditions: 288.15 K; 101.33 kPa; Liquid; Parallel plate capacitor

In order of rising “relative permittivity at zero frequency” value:
1. O=C1CCCCCC1 [cycloheptanone]  13.35 ± 0.02
2. O=C1CCCC1 [cyclopentanone]  13.86 ± 0.04
3. O=C1CCC1 [cyclobutanone]  15.46 ± 0.02
4. O=C1CCCCC1 [cyclohexanone]  16.4 ± 0.02

Same assay, conditions: 290.65 K; 101.33 kPa; Liquid; Parallel plate capacitor

In order of rising “relative permittivity at zero frequency” value:
1. O=C1CCCCCC1 [cycloheptanone]  13.25 ± 0.02
2. O=C1CCCC1 [cyclopentanone]  13.77 ± 0.04
3. O=C1CCC1 [cyclobutanone]  15.33 ± 0.02
4. O=C1CCCCC1 [cyclohexanone]  16.24 ± 0.02

Same assay, conditions: 293.15 K; 101.33 kPa; Liquid; Parallel plate capacitor

In order of rising “relative permittivity at zero frequency” value:
1. O=C1CCCCCC1 [cycloheptanone]  13.14 ± 0.02
2. O=C1CCCC1 [cyclopentanone]  13.67 ± 0.04
3. O=C1CCC1 [cyclobutanone]  15.2 ± 0.02
4. O=C1CCCCC1 [cyclohexanone]  16.08 ± 0.02

Same assay, conditions: 295.65 K; 101.33 kPa; Liquid; Parallel plate capacitor

In order of rising “relative permittivity at zero frequency” value:
1. O=C1CCCCCC1 [cycloheptanone]  13.03 ± 0.02
2. O=C1CCCC1 [cyclopentanone]  13.58 ± 0.04
3. O=C1CCC1 [cyclobutanone]  15.08 ± 0.02
4. O=C1CCCCC1 [cyclohexanone]  15.92 ± 0.02

Same assay, conditions: 298.15 K; 101.33 kPa; Liquid; Parallel plate capacitor

In order of falling “relative permittivity at zero frequency” value:
1. O=C1CCCCC1 [cyclohexanone]  15.77 ± 0.02
2. O=C1CCC1 [cyclobutanone]  14.96 ± 0.02
3. O=C1CCCCCCC1 [cyclooctanone]  14.54 ± 0.04
4. O=C1CCCC1 [cyclopentanone]  13.49 ± 0.04
5. O=C1CCCCCC1 [cycloheptanone]  12.92 ± 0.02

Same assay, conditions: 300.65 K; 101.33 kPa; Liquid; Parallel plate capacitor

In order of rising “relative permittivity at zero frequency” value:
1. O=C1CCCCCC1 [cycloheptanone]  12.82 ± 0.02
2. O=C1CCCC1 [cyclopentanone]  13.39 ± 0.04
3. O=C1CCC1 [cyclobutanone]  14.84 ± 0.02
4. O=C1CCCCC1 [cyclohexanone]  15.62 ± 0.02

Same assay, conditions: 303.15 K; 101.33 kPa; Liquid; Parallel plate capacitor

In order of falling “relative permittivity at zero frequency” value:
1. O=C1CCCCC1 [cyclohexanone]  15.46 ± 0.02
2. O=C1CCC1 [cyclobutanone]  14.72 ± 0.02
3. O=C1CCCCCCC1 [cyclooctanone]  14.22 ± 0.04
4. O=C1CCCC1 [cyclopentanone]  13.3 ± 0.04
5. O=C1CCCCCC1 [cycloheptanone]  12.72 ± 0.02

Same assay, conditions: 305.65 K; 101.33 kPa; Liquid; Parallel plate capacitor

In order of falling “relative permittivity at zero frequency” value:
1. O=C1CCCCC1 [cyclohexanone]  15.32 ± 0.02
2. O=C1CCC1 [cyclobutanone]  14.6 ± 0.02
3. O=C1CCCCCCC1 [cyclooctanone]  14.05 ± 0.04
4. O=C1CCCC1 [cyclopentanone]  13.22 ± 0.04
5. O=C1CCCCCC1 [cycloheptanone]  12.62 ± 0.02

Same assay, conditions: 308.15 K; 101.33 kPa; Liquid; Parallel plate capacitor

In order of rising “relative permittivity at zero frequency” value:
1. O=C1CCCCCC1 [cycloheptanone]  12.51 ± 0.02
2. O=C1CCCC1 [cyclopentanone]  13.13 ± 0.04
3. O=C1CCCCCCC1 [cyclooctanone]  13.89 ± 0.04
4. O=C1CCC1 [cyclobutanone]  14.48 ± 0.02
5. O=C1CCCCC1 [cyclohexanone]  15.17 ± 0.02

Same assay, conditions: 310.65 K; 101.33 kPa; Liquid; Parallel plate capacitor

In order of falling “relative permittivity at zero frequency” value:
1. O=C1CCCCC1 [cyclohexanone]  15.03 ± 0.02
2. O=C1CCC1 [cyclobutanone]  14.37 ± 0.02
3. O=C1CCCCCCC1 [cyclooctanone]  13.74 ± 0.04
4. O=C1CCCC1 [cyclopentanone]  13.04 ± 0.04
5. O=C1CCCCCC1 [cycloheptanone]  12.41 ± 0.02

Same assay, conditions: 313.15 K; 101.33 kPa; Liquid; Parallel plate capacitor

In order of falling “relative permittivity at zero frequency” value:
1. O=C1CCCCC1 [cyclohexanone]  14.89 ± 0.02
2. O=C1CCC1 [cyclobutanone]  14.25 ± 0.02
3. O=C1CCCCCCC1 [cyclooctanone]  13.57 ± 0.04
4. O=C1CCCC1 [cyclopentanone]  12.95 ± 0.04
5. O=C1CCCCCC1 [cycloheptanone]  12.32 ± 0.02

Same assay, conditions: 315.65 K; 101.33 kPa; Liquid; Parallel plate capacitor

In the case of `O=C1CCCCCCC1` [cyclooctanone], the “relative permittivity at zero frequency” value is reported as 13.42 ± 0.04.

Same assay, conditions: 318.15 K; 101.33 kPa; Liquid; Parallel plate capacitor

With `O=C1CCCCCCC1` [cyclooctanone] the “relative permittivity at zero frequency” value was 13.27 ± 0.04.

Same assay, conditions: 320.65 K; 101.33 kPa; Liquid; Parallel plate capacitor

For `O=C1CCCCCCC1` [cyclooctanone], the “relative permittivity at zero frequency” value was 13.14 ± 0.04.

Same assay, conditions: 323.15 K; 101.33 kPa; Liquid; Parallel plate capacitor

With `O=C1CCCCCCC1` [cyclooctanone] the “relative permittivity at zero frequency” value was 12.99 ± 0.04.

Same assay, conditions: 325.65 K; 101.33 kPa; Liquid; Parallel plate capacitor

In the case of `O=C1CCCCCCC1` [cyclooctanone], the “relative permittivity at zero frequency” value is reported as 12.85 ± 0.04.

Same assay, conditions: 328.15 K; 101.33 kPa; Liquid; Parallel plate capacitor

With `O=C1CCCCCCC1` [cyclooctanone] the “relative permittivity at zero frequency” value was 12.71 ± 0.04.

Same assay, conditions: 330.65 K; 101.33 kPa; Liquid; Parallel plate capacitor

In the case of `O=C1CCCCCCC1` [cyclooctanone], the “relative permittivity at zero frequency” value is reported as 12.58 ± 0.04.

Same assay, conditions: 333.15 K; 101.33 kPa; Liquid; Parallel plate capacitor

In the case of `O=C1CCCCCCC1` [cyclooctanone], the “relative permittivity at zero frequency” value is reported as 12.44 ± 0.04.

Same assay, conditions: 335.65 K; 101.33 kPa; Liquid; Parallel plate capacitor

For `O=C1CCCCCCC1` [cyclooctanone], the “relative permittivity at zero frequency” value was 12.3 ± 0.04.

Same assay, conditions: 338.15 K; 101.33 kPa; Liquid; Parallel plate capacitor

In the case of `O=C1CCCCCCC1` [cyclooctanone], the “relative permittivity at zero frequency” value is reported as 12.17 ± 0.04.

Same assay, conditions: 340.65 K; 101.33 kPa; Liquid; Parallel plate capacitor

For `O=C1CCCCCCC1` [cyclooctanone], the “relative permittivity at zero frequency” value was 12.04 ± 0.04.

Same assay, conditions: 343.15 K; 101.33 kPa; Liquid; Parallel plate capacitor

With `O=C1CCCCCCC1` [cyclooctanone] the “relative permittivity at zero frequency” value was 11.9 ± 0.04.
